# According to ChEMBL document CHEMBL3885881, “DrugMatrix”:
# Species on record: Rattus norvegicus
# Experiment: DrugMatrix - Regimen: Daily Repeat
# Type: toxicity, organism-based, Sprague-Dawley
# Parameters: regimen Daily Repeat, gender Male, age 6-8 weeks
# Settings: in vivo, po, route oral GAVAGE, vehicle .5 % CMC; for ABSOLUTE BASOPHIL / ABSOLUTE EOSINOPHIL / ABSOLUTE LYMPHOCYTE / ABSOLUTE MONOCYTE / ABSOLUTE SEGMENTED NEUTROPHIL / BASOPHIL / EOSINOPHIL / ERYTHROCYTE COUNT / HEMATOCRIT / HEMOGLOBIN / LEUKOCYTE COUNT / LYMPHOCYTE / MEAN CORPUSCULAR HEMOGLOBIN / MEAN CORPUSCULAR HEMOGLOBIN CONCENTRATION / MONOCYTE / NEUTROPHIL / NUCLEATED RED BLOOD CELLS / PLATELET COUNT: tissue Blood; for ALANINE AMINOTRANSFERASE / ALBUMIN / ALKALINE PHOSPHATASE / ASPARTATE AMINOTRANSFERASE / BLOOD UREA NITROGEN / CARBON DIOXIDE / CHLORIDE / CHOLESTEROL / CREATININE / GLUCOSE / LACTATE DEHYDROGENASE / LIPASE / PHOSPHORUS / POTASSIUM / SODIUM / TOTAL BILIRUBIN / TOTAL PROTEIN / URIC ACID: tissue Plasma
# [1] = 50 mg/kg, 72 h, dose level Low, time 3 day
# [2] = 50 mg/kg, 120 h, dose level Low, time 5 day
# [3] = 600 mg/kg, 72 h, dose level High, time 3 day
# [4] = 600 mg/kg, 120 h, dose level High, time 5 day
compound,measurement,setting,value
N[C@@H]1[C@H]2CN(c3nc4c(cc3F)c(=O)c(C(=O)O)cn4-c3ccc(F)cc3F)C[C@@H]12 [TROVAFLOXACIN],ABSOLUTE BASOPHIL,[1],0 CELLS/uL
same,ABSOLUTE EOSINOPHIL,[1],332.33 CELLS/uL
same,ABSOLUTE LYMPHOCYTE,[1],13247 CELLS/uL
same,ABSOLUTE MONOCYTE,[1],338.33 CELLS/uL
same,ABSOLUTE SEGMENTED NEUTROPHIL,[1],2282.33 CELLS/uL
same,BASOPHIL,[1],0%
same,EOSINOPHIL,[1],2%
same,ERYTHROCYTE COUNT,[1],5.64 x10E6/uL
same,HEMATOCRIT,[1],34.17%
same,HEMOGLOBIN,[1],12.5 G/DL
same,LEUKOCYTE COUNT,[1],16.2 x10E3/uL
same,LYMPHOCYTE,[1],82%
same,MEAN CORPUSCULAR HEMOGLOBIN,[1],22.13 pg
same,MEAN CORPUSCULAR HEMOGLOBIN CONCENTRATION,[1],36.57 G/DL
same,MONOCYTE,[1],2%
same,NEUTROPHIL,[1],14%
same,NUCLEATED RED BLOOD CELLS,[1],0 /100WBC
same,PLATELET COUNT,[1],1160 x10E3/uL
same,ALANINE AMINOTRANSFERASE,[1],50.67 u/L
same,ALBUMIN,[1],4.23 G/DL
same,ALKALINE PHOSPHATASE,[1],421 u/L
same,ASPARTATE AMINOTRANSFERASE,[1],75.33 u/L
same,BLOOD UREA NITROGEN,[1],16 mg/dL
same,CARBON DIOXIDE,[1],27 mmol/L
same,CHLORIDE,[1],102.33 MEQ/L
same,CHOLESTEROL,[1],86.33 mg/dL
same,CREATININE,[1],0.17 mg/dL
same,GLUCOSE,[1],151 mg/dL
same,LACTATE DEHYDROGENASE,[1],114.67 u/L
same,LIPASE,[1],9.33 u/L
same,PHOSPHORUS,[1],13.33 mg/dL
same,POTASSIUM,[1],6.87 MEQ/L
same,SODIUM,[1],148.2 MEQ/L
same,TOTAL BILIRUBIN,[1],0.17 mg/dL
same,TOTAL PROTEIN,[1],6.3 G/DL
same,URIC ACID,[1],1.47 mg/dL
same,ABSOLUTE BASOPHIL,[2],0 CELLS/uL
same,ABSOLUTE EOSINOPHIL,[2],225.67 CELLS/uL
same,ABSOLUTE LYMPHOCYTE,[2],14834.67 CELLS/uL
same,ABSOLUTE MONOCYTE,[2],380.67 CELLS/uL
same,ABSOLUTE SEGMENTED NEUTROPHIL,[2],2392.33 CELLS/uL
same,BASOPHIL,[2],0%
same,EOSINOPHIL,[2],1.33%
same,ERYTHROCYTE COUNT,[2],5.73 x10E6/uL
same,HEMATOCRIT,[2],34.4%
same,HEMOGLOBIN,[2],12.63 G/DL
same,LEUKOCYTE COUNT,[2],17.83 x10E3/uL
same,LYMPHOCYTE,[2],82.67%
same,MEAN CORPUSCULAR HEMOGLOBIN,[2],22.13 pg
same,MEAN CORPUSCULAR HEMOGLOBIN CONCENTRATION,[2],36.73 G/DL
same,MONOCYTE,[2],2%
same,NEUTROPHIL,[2],14%
same,NUCLEATED RED BLOOD CELLS,[2],0 /100WBC
same,PLATELET COUNT,[2],1198 x10E3/uL
same,ALANINE AMINOTRANSFERASE,[2],44.67 u/L
same,ALBUMIN,[2],4 G/DL
same,ALKALINE PHOSPHATASE,[2],375.33 u/L
same,ASPARTATE AMINOTRANSFERASE,[2],95 u/L
same,BLOOD UREA NITROGEN,[2],15.33 mg/dL
same,CARBON DIOXIDE,[2],27.67 mmol/L
same,CHLORIDE,[2],100.33 MEQ/L
same,CHOLESTEROL,[2],77.67 mg/dL
same,CREATININE,[2],0.14 mg/dL
same,GLUCOSE,[2],165.33 mg/dL
same,LACTATE DEHYDROGENASE,[2],482.33 u/L
same,LIPASE,[2],9 u/L
same,PHOSPHORUS,[2],13.63 mg/dL
same,POTASSIUM,[2],6.38 MEQ/L
same,SODIUM,[2],144.47 MEQ/L
same,TOTAL BILIRUBIN,[2],0.13 mg/dL
same,TOTAL PROTEIN,[2],5.9 G/DL
same,URIC ACID,[2],2.13 mg/dL
same,ABSOLUTE BASOPHIL,[3],0 CELLS/uL
same,ABSOLUTE EOSINOPHIL,[3],206 CELLS/uL
same,ABSOLUTE LYMPHOCYTE,[3],11774.33 CELLS/uL
same,ABSOLUTE MONOCYTE,[3],306 CELLS/uL
same,ABSOLUTE SEGMENTED NEUTROPHIL,[3],3013.67 CELLS/uL
same,BASOPHIL,[3],0%
same,EOSINOPHIL,[3],1.33%
same,ERYTHROCYTE COUNT,[3],5.75 x10E6/uL
same,HEMATOCRIT,[3],34.53%
same,HEMOGLOBIN,[3],12.7 G/DL
same,LEUKOCYTE COUNT,[3],15.3 x10E3/uL
same,LYMPHOCYTE,[3],78.33%
same,MEAN CORPUSCULAR HEMOGLOBIN,[3],22.13 pg
same,MEAN CORPUSCULAR HEMOGLOBIN CONCENTRATION,[3],36.77 G/DL
same,MONOCYTE,[3],2%
same,NEUTROPHIL,[3],18.33%
same,NUCLEATED RED BLOOD CELLS,[3],0 /100WBC
same,PLATELET COUNT,[3],1258 x10E3/uL
same,ALANINE AMINOTRANSFERASE,[3],35.33 u/L
same,ALBUMIN,[3],4.27 G/DL
same,ALKALINE PHOSPHATASE,[3],290.67 u/L
same,ASPARTATE AMINOTRANSFERASE,[3],69.67 u/L
same,BLOOD UREA NITROGEN,[3],19.67 mg/dL
same,CARBON DIOXIDE,[3],25.33 mmol/L
same,CHLORIDE,[3],106.33 MEQ/L
same,CHOLESTEROL,[3],81.33 mg/dL
same,CREATININE,[3],0.16 mg/dL
same,GLUCOSE,[3],145 mg/dL
same,LACTATE DEHYDROGENASE,[3],197 u/L
same,LIPASE,[3],9.33 u/L
same,PHOSPHORUS,[3],13.8 mg/dL
same,POTASSIUM,[3],6.71 MEQ/L
same,SODIUM,[3],151.87 MEQ/L
same,TOTAL BILIRUBIN,[3],0.17 mg/dL
same,TOTAL PROTEIN,[3],6.43 G/DL
same,URIC ACID,[3],1.63 mg/dL
same,ABSOLUTE BASOPHIL,[4],0 CELLS/uL
same,ABSOLUTE EOSINOPHIL,[4],229.8 CELLS/uL
same,ABSOLUTE LYMPHOCYTE,[4],12826.8 CELLS/uL
same,ABSOLUTE MONOCYTE,[4],343 CELLS/uL
same,ABSOLUTE SEGMENTED NEUTROPHIL,[4],1100.4 CELLS/uL
same,BASOPHIL,[4],0%
same,EOSINOPHIL,[4],1.6%
same,ERYTHROCYTE COUNT,[4],5.94 x10E6/uL
same,HEMATOCRIT,[4],35.56%
same,HEMOGLOBIN,[4],12.98 G/DL
same,LEUKOCYTE COUNT,[4],14.5 x10E3/uL
same,LYMPHOCYTE,[4],88.4%
same,MEAN CORPUSCULAR HEMOGLOBIN,[4],21.88 pg
same,MEAN CORPUSCULAR HEMOGLOBIN CONCENTRATION,[4],36.5 G/DL
same,MONOCYTE,[4],2.4%
same,NEUTROPHIL,[4],7.6%
same,NUCLEATED RED BLOOD CELLS,[4],0 /100WBC
same,PLATELET COUNT,[4],1294.2 x10E3/uL
same,ALANINE AMINOTRANSFERASE,[4],42 u/L
same,ALBUMIN,[4],4.16 G/DL
same,ALKALINE PHOSPHATASE,[4],348.4 u/L
same,ASPARTATE AMINOTRANSFERASE,[4],67.4 u/L
same,BLOOD UREA NITROGEN,[4],17.8 mg/dL
same,CARBON DIOXIDE,[4],29.6 mmol/L
same,CHLORIDE,[4],102 MEQ/L
same,CHOLESTEROL,[4],83 mg/dL
same,CREATININE,[4],0.15 mg/dL
same,GLUCOSE,[4],156 mg/dL
same,LACTATE DEHYDROGENASE,[4],129.8 u/L
same,LIPASE,[4],9.8 u/L
same,PHOSPHORUS,[4],14.22 mg/dL
same,POTASSIUM,[4],6.78 MEQ/L
same,SODIUM,[4],146.28 MEQ/L
same,TOTAL BILIRUBIN,[4],0.14 mg/dL
same,TOTAL PROTEIN,[4],6 G/DL
same,URIC ACID,[4],1.88 mg/dL
